Results taken from PubChem BioAssay AID179 (DTP/NCI, 2004).
Where “and” joins values, the source holds several entries; their conditions need not be identical. Equal entries are not always repeated. Calls of active or inactive are those of the source.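 How the source made its calls: active means compounds giving half or more protection of infected cells from virus-caused growth loss, again on retest; inactive means the rest.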 Where a SMILES comes first, the peptide text is derived from it.

Test system: CEM cells HIV-1 protection, formazan growth assay
Test: NCI AIDS Antiviral Assay
Conditions: for IC50: measured here: growth of uninfected CEM cells
How it was run: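 Category rules: moderately active means at least 50% protection on retest, and confirmed active means 100% protection reproducibly. The underlying data came from a formazan growth assay in HIV-1-infected CEM cells.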

Row | Structure (SMILES) | EC50 [µM] | IC50 | outcome
1 | C/C=C(/C)C(=O)O[C@H]1C[C@@H]2[C@@H](O)c3occ(C)c3C[C@]2(C)[C@@H](C)C1 | > 200 | 10.5 µM | –
2 | N=C(N)SCc1ccc(N=C=S)cc1 | > 200 | 83.2 µM | –
3 | CN(C)c1ccc(/C=C2/SC(=S)NC2=O)cc1 | > 38 | > 38 µM | –
4 | Cc1cc(=O)oc2cc(O)ccc12 | > 741 | 191 µM and > 200 µM | –
5 | O=C1CC(=O)NC(=NN2C(=O)/C(=C/c3ccc(Cl)c(Cl)c3)N=C2c2ccccc2)N1 | > 200 | 21.9 µM | –
6 | CCCCNc1cc2oc(=O)cc(C)c2cc1N | > 155 | 44.7 µM | –
7 | CC(O)c1ccc[n+](Cc2ccccc2)c1 (stereo unspecified) | > 1000 | 776 µM | –
8 | Cc1ccccc1N1C(=O)[N+](C)(C)N=C1[O-] | > 1150 | > 1150 µM | –
9 | CCN(CC)CCCCC1CCN(CC(=O)N2c3ccccc3NC(=O)c3ccccc32)CC1 | > 282 | 158 µM | –
10 | CCCC(C(=O)OCCN1CCCC12CCCCC2)C1CCCC1 (stereo unspecified) | > 200 | 11 µM | –
11 | CN1CCN(/C(N)=C(\C#N)C(=O)Nc2ccccc2)CC1 | > 200 | > 200 µM | –
12 | Cc1cc(=O)oc2c1cc1ccc3cccc4ccc2c1c34 | – | – | inactive
13 | CS(=O)(=O)N1CC(CCl)c2ccc(SSc3ccc4c(c3)N(S(C)(=O)=O)CC4CCl)cc21 (stereo unspecified) | – | – | inactive
14 | O=C1CC(=O)NC(=NN2C(=O)/C(=C/c3ccccc3)N=C2c2ccccc2)N1 | > 200 | > 200 µM | –
15 | CN(C)CCSc1nnc(-c2cccs2)c2ccccc12 | > 794 | 40.7 µM | –
16 | O=C1SS(=O)c2ccccc21 (stereo unspecified) | > 200 | 95.5 µM | –
17 | O=S(=O)(SCc1ccccc1)C(c1ccccc1)c1ccccc1 | > 105 | 6.31 µM | –
18 | CCO/S(=N/S(=O)(=O)c1ccccc1)c1ccccc1[N+](=O)[O-] (stereo unspecified) | > 708 | 182 µM | –
19 | CC12CC3CC(C)(C1)CC(SCCN)(C3)C2 | > 200 | 38 µM | –
20 | O=P(OC1=CCCCC1)(c1ccccc1)c1ccccc1 | > 200 | 81.3 µM | –
21 | COc1ccc([C@@H]2CC(=O)N2)cc1 | > 200 | > 200 µM | –

Row | Structure (SMILES) | EC50 [µM] | IC50 | outcome
22 | Cc1cn(C2CC(O)C(CN(O)CCC3CC(n4cc(C)c(=O)[nH]c4=O)OC3CO)O2)c(=O)[nH]c1=O (stereo unspecified) | > 200 | > 200 µM | –
23 | O=S(=O)(Cc1ccccc1)C(I)c1ccccc1 (stereo unspecified) | > 69.2 | 13.8 µM | –
24 | CC(C(=O)NCNC(=O)c1ccccc1)C(=O)Nc1ccccc1 (stereo unspecified) | – | – | inactive
25 | CCC(=O)[CH-]C(=O)CC.CCC(=O)[CH-]C(=O)CC.[Cu+2] | > 200 | 24.5 µM | –
26 | O=C(CCCN1CCC2(CC1)CC(=O)N(N1CCOCC1)C2=O)c1ccc(F)cc1 | > 200 | > 200 µM | –
27 | NN1CCc2ccccc2C1 | > 200 | > 200 µM | –
28 | COc1cc(CN=c2nc(N(C)C)ss2)cc(OC)c1OC | > 100 | 6.92 µM | –
29 | CN(C)c1ccc(/C=C(\NC(=O)c2ccccc2)C(=O)Nc2ccccc2C(=O)NN2C(=O)CSC2c2ccc(N(C)C)cc2)cc1 (stereo unspecified) | > 50.1 | > 50.1 µM | –
30 | COc1ccc(-c2ccccc2)c(N/N=C2\CCCNC2=O)c1 | – | – | inactive
31 | Cc1cc(N=O)cc(Cl)c1O | > 200 | 10.5 µM | –
32 | COc1cccc(CCn2c(N)c(-c3ccccc3)c3ccc([N+](=O)[O-])cc3c2=O)c1 | > 200 | 7.41 µM | –
33 | C[N+]1([O-])[C@H]2CC(OC(=O)[C@H](CO)c3ccccc3)C[C@H]1[C@H]1O[C@H]12 (stereo partly specified) | > 200 | > 200 µM | –
34 | CC1OC(OC2C(O)C(O)C(N=C(N)N)C(O)C2N=C(N)N)C(OC2OC(CO)C(O)C(O)C2N(C)N=O)C1(O)C=O (stereo unspecified) | – | – | inactive
35 | Cc1nnc2c3c(-c4ccccc4)c(-c4ccccc4)oc3nc(N(C)C)n12 | – | – | inactive
36 | CC(C)OC(=S)SSSC(=S)OC(C)C | > 200 | 19.1 µM | –
37 | N/N=C(\C(=O)Nc1ccc(Cl)cc1Cl)C(c1cnc2ccccc2n1)[N+](=O)[O-] (stereo unspecified) | > 120 | > 120 µM | –
38 | O=C(OCC1CO1)c1cccs1 (stereo unspecified) | – | – | inactive
39 | O=C1N(C2CCCCC2)CC2(Cc3ccccc3)c3ccccc3NC12O (stereo unspecified) | > 20 | > 20 µM | –
40 | CCCCN(CCO)Cc1cc(Nc2c3ccccc3nc3ccccc23)ccc1O | > 63.1 | 20.4 µM | –
41 | Cc1ccc([S@](=O)c2occc2C=O)cc1 | > 20 | 1.82 µM | –
42 | S=C(SSC(=S)C1CCCC1=NC1CCCCC1)C1CCCC1=NC1CCCCC1 (stereo unspecified) | > 200 | 151 µM | –

Row | Structure (SMILES) | EC50 [µM] | IC50 | outcome
43 | CC(=O)OCC1OC(n2cc([N+](=O)[O-])c(=O)[nH]c2=O)C(OC(C)=O)C(OC(C)=O)C1OC(C)=O (stereo unspecified) | > 513 | > 513 µM | –
44 | CCOC(=O)c1cc2c([nH]1)c(OC(C)=O)cc1c2ccn1Cc1ccccc1 | > 200 | > 200 µM | –
45 | COC(=O)CCC1=NCC(C)(C)O1 | > 200 | > 200 µM | –
46 | COc1ccc(NC(=O)C(=O)Cc2ccc([N+](=O)[O-])c([N+](=O)[O-])c2CC(=O)C(=O)Nc2ccc(OC)cc2OC)c(OC)c1 | > 407 | 186 µM | –
47 | c1ccc(N/N=C2\NN=C(c3ccccc3)CS2)cc1 | > 66.1 | 35.5 µM | –
48 | N#CCCN(CCCN(C(=O)N(c1ccccc1)c1ccccc1)c1ccccc1)C(=O)Nc1ccccc1 | > 200 | 10.5 µM | –
49 | C=CCOC(=O)Cn1ccc(=O)[nH]c1=O | > 200 | > 200 µM | –
50 | O=C1Nc2cc(Cl)ccc2N=CC1NC(=O)C(c1ccccc1)c1ccccc1Cl (stereo unspecified) | > 295 | 219 µM | –
51 | O=C(OC(=C(c1ccccc1)c1ccccc1)N1CCCC1=S)C(c1ccccc1)c1ccccc1 | > 200 | > 200 µM | –
52 | Cc1ccccc1N1C(=O)C2C=CC(n3[nH]c(=O)n(Cc4ccccc4)c3=O)CC2C1=O (stereo unspecified) | > 219 | > 219 µM | –
53 | O=C(c1ccncc1)n1nc(-c2ccccc2)c(N=Nc2ccc([N+](=O)[O-])cc2)c1-c1ccccc1 | > 39.8 | > 39.8 µM | –
54 | CC(C)CC(NC(=O)C(Cc1ccc(O)cc1)NC(=O)C(CO)NC(=O)C(CCC(=O)O)NC(=O)C1CCCN1C(=O)C(CC(C)C)NC(=O)C(C)NC(=O)CNC(=O)C(N)CCC(=O)O)C(=O)NCC(=O)O (stereo unspecified) (H-EGALPESYLG-OH; configuration not given here) | – | – | inactive
55 | NC1=NN(c2ccccc2)C(=O)C1C(=O)C(=O)Nc1ccc(Cl)cc1 (stereo unspecified) | > 347 | 251 µM | –
56 | CC(C)CCC[C@@H](C)C1CCC2[C@@H]3CC=C4C[C@@H](OP(=O)(O)O)CC[C@]4(C)C3CC[C@@]21C (stereo partly specified) | > 28.2 | > 28.2 µM | –
57 | O=C1CSC(c2c[nH]c3ccccc23)N1c1ccc(Cl)cc1 (stereo unspecified) | > 110 | > 110 µM | –
58 | C#CCNC(CSSCC(N)C(=O)O)C(=O)O (stereo unspecified) | 6.92 | > 200 µM | –
59 | Cc1ccc(C(=O)Nc2ccc(S(=O)(=O)O)c3cc(S(=O)(=O)O)cc(S(=O)(=O)O)c23)cc1NC(=O)c1cccc(NC(=S)Nc2cccc(C(=O)Nc3cc(C(=O)Nc4ccc(S(=O)(=O)O)c5cc(S(=O)(=O)O)cc(S(=O)(=O)O)c45)ccc3C)c2)c1 | 100 | 537 µM | –
60 | N=C(N)SCC1OCOC1C1OCOC1CSC(=N)N (stereo unspecified) | > 776 | > 776 µM | –
61 | N#CC(C#N)=CNC(N)=S | > 200 | > 200 µM | –
62 | O=c1[nH]cnc2c1ncn2C1CCC(CO)O1 (stereo unspecified) | 6.03 | 50.1 µM | –
